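All cell lines were grown in 96-well plates and treated with compound for 48 hours. GI50 marks 50% less growth. At the TGI there is no net growth.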
Columns and labels:
Test in all cases: NCI tumour cell line growth inhibition, 48 h
MDA-MB-435 = system: MDA-MB-435
NCI-H226 lung = system: NCI-H226 lung
OVCAR-3 ovarian = system: OVCAR-3 ovarian
SK-MEL-5 melanoma = system: SK-MEL-5 melanoma
KM12 colon = system: KM12 colon
M14 melanoma = system: M14 melanoma
MCF7 breast = system: MCF7 breast
SW-620 colon = system: SW-620 colon
T-47D breast = system: T-47D breast
HCC-2998 colon = system: HCC-2998 colon
NCI/ADR-RES ovarian = system: NCI/ADR-RES ovarian
LOX IMVI melanoma = system: LOX IMVI melanoma
CCRF-CEM leukemia = system: CCRF-CEM leukemia
HT29 colon = system: HT29 colon
SNB-19 CNS = system: SNB-19 CNS
A549 NSCLC = system: A549 NSCLC
ACHN renal = system: ACHN renal
OVCAR-8 ovarian = system: OVCAR-8 ovarian
CAKI-1 renal = system: CAKI-1 renal
A498 renal = system: A498 renal
HCT-116 colon = system: HCT-116 colon
OVCAR-5 ovarian = system: OVCAR-5 ovarian
NCI-H522 lung = system: NCI-H522 lung
786-0 renal = system: 786-0 renal
SF-295 CNS = system: SF-295 CNS
EKVX NSCLC = system: EKVX NSCLC
MOLT-4 leukemia = system: MOLT-4 leukemia
MALME-3M melanoma = system: MALME-3M melanoma
OVCAR-4 ovarian = system: OVCAR-4 ovarian
K-562 leukemia = system: K-562 leukemia
TK-10 renal = system: TK-10 renal
UO-31 renal = system: UO-31 renal
HL-60(TB) leukemia = system: HL-60(TB) leukemia
SN12C renal = system: SN12C renal
SF-268 CNS = system: SF-268 CNS
UACC-257 melanoma = system: UACC-257 melanoma
BT-549 breast = system: BT-549 breast
SK-MEL-28 melanoma = system: SK-MEL-28 melanoma
SF-539 CNS = system: SF-539 CNS
HOP-62 NSCLC = system: HOP-62 NSCLC
SNB-75 CNS = system: SNB-75 CNS
SK-OV-3 ovarian = system: SK-OV-3 ovarian
IGROV1 ovarian = system: IGROV1 ovarian
NCI-H460 lung = system: NCI-H460 lung
COLO 205 colon = system: COLO 205 colon
DU-145 prostate = system: DU-145 prostate
UACC-62 melanoma = system: UACC-62 melanoma
SK-MEL-2 melanoma = system: SK-MEL-2 melanoma
U251 CNS = system: U251 CNS
MDA-MB-231 breast = system: MDA-MB-231 breast
PC-3 prostate = system: PC-3 prostate
HS 578T breast = system: HS 578T breast
HCT-15 colon = system: HCT-15 colon
NCI-H23 lung = system: NCI-H23 lung
RXF 393 renal = system: RXF 393 renal
HOP-92 NSCLC = system: HOP-92 NSCLC
RPMI-8226 leukemia = system: RPMI-8226 leukemia

## CN(C)CCNc1c2ccccc2nc2oc3ccccc3c12
MDA-MB-435
  GI50: 6.9 µM
  TGI: 23 µM
NCI-H226 lung
  GI50: 8.65 µM
  TGI: 47.1 µM
OVCAR-3 ovarian
  GI50: 8.71 µM
  TGI: 51 µM
SK-MEL-5 melanoma
  GI50: 8.09 µM
  TGI: 20.5 µM
KM12 colon
  GI50: 6.84 µM
  TGI: 33.9 µM
M14 melanoma
  GI50: 11.3 µM
  TGI: 32.5 µM
MCF7 breast
  GI50: 4.07 µM
  TGI: 16.1 µM
SW-620 colon
  GI50: 3.61 µM
  TGI: 15.1 µM
T-47D breast
  GI50: 4.72 µM
  TGI: 26.7 µM
HCC-2998 colon
  GI50: 8.49 µM
  TGI: 22.3 µM
NCI/ADR-RES ovarian
  GI50: 9 µM
  TGI: > 100 µM
LOX IMVI melanoma
  GI50: 4.35 µM
  TGI: 14.9 µM
CCRF-CEM leukemia
  TGI: 0.0412 µM
HT29 colon
  GI50: 3.97 µM
  TGI: 19.6 µM
SNB-19 CNS
  GI50: 6.88 µM
  TGI: 34.8 µM
A549 NSCLC
  GI50: 4.75 µM
  TGI: 36 µM
ACHN renal
  GI50: 4.48 µM
  TGI: 25.8 µM
OVCAR-8 ovarian
  GI50: 6.66 µM
  TGI: > 100 µM
CAKI-1 renal
  GI50: 14.5 µM
  TGI: > 100 µM
A498 renal
  GI50: 3.28 µM
  TGI: 13.8 µM
HCT-116 colon
  GI50: 4.16 µM
  TGI: 23.7 µM
OVCAR-5 ovarian
  GI50: 20.6 µM
  TGI: 49.7 µM
NCI-H522 lung
  GI50: 4.6 µM
  TGI: 18.3 µM
786-0 renal
  GI50: 5.39 µM
  TGI: 29.2 µM
SF-295 CNS
  GI50: 5.99 µM
  TGI: 24.6 µM
EKVX NSCLC
  GI50: 6.49 µM
  TGI: 32.2 µM
MOLT-4 leukemia
  GI50: 3 µM
  TGI: 12.1 µM
MALME-3M melanoma
  GI50: 3.73 µM
  TGI: 17.6 µM
OVCAR-4 ovarian
  GI50: 9.45 µM
  TGI: 37.9 µM
K-562 leukemia
  GI50: 5.22 µM
  TGI: > 100 µM
TK-10 renal
  GI50: 5.86 µM
  TGI: 55.5 µM
UO-31 renal
  GI50: 4.91 µM
  TGI: 46.9 µM
HL-60(TB) leukemia
  GI50: 3.53 µM
  TGI: 25.2 µM
SN12C renal
  GI50: 5.66 µM
  TGI: 34 µM
SF-268 CNS
  GI50: 5.81 µM
  TGI: 27.7 µM
UACC-257 melanoma
  GI50: 7.88 µM
  TGI: 27 µM
BT-549 breast
  GI50: 5.67 µM
  TGI: 18.4 µM
SK-MEL-28 melanoma
  GI50: 11.8 µM
  TGI: 25.3 µM
SF-539 CNS
  GI50: 4.03 µM
  TGI: 15.3 µM
HOP-62 NSCLC
  GI50: 7.97 µM
  TGI: 42.6 µM
SNB-75 CNS
  GI50: 12.5 µM
  TGI: 25.8 µM
SK-OV-3 ovarian
  GI50: 7.11 µM
  TGI: 28.5 µM
IGROV1 ovarian
  GI50: 4.82 µM
  TGI: 26 µM
NCI-H460 lung
  GI50: 3.37 µM
  TGI: 13.3 µM
COLO 205 colon
  GI50: 2.43 µM
  TGI: 10.3 µM
DU-145 prostate
  GI50: 4.35 µM
  TGI: 17.9 µM
UACC-62 melanoma
  GI50: 10.1 µM
  TGI: 23.5 µM
SK-MEL-2 melanoma
  GI50: 12.2 µM
  TGI: 31.4 µM
U251 CNS
  GI50: 7.87 µM
  TGI: 24.7 µM
MDA-MB-231 breast
  GI50: 6.47 µM
  TGI: 27.2 µM
PC-3 prostate
  GI50: 3.4 µM
  TGI: 19.5 µM
HS 578T breast
  GI50: 4.6 µM
  TGI: 20.1 µM
HCT-15 colon
  GI50: 5.04 µM
  TGI: 25 µM

## O=C1c2ccccc2-c2c1c1c(O)cccc1n2Cc1ccccn1
MDA-MB-435
  GI50: 27.4 µM
  TGI: > 100 µM
NCI-H226 lung
  GI50: 12.8 µM
  TGI: 65.3 µM
OVCAR-3 ovarian
  GI50: 20.1 µM
  TGI: 69.4 µM
SK-MEL-5 melanoma
  GI50: 8.77 µM
  TGI: > 100 µM
KM12 colon
  GI50: > 100 µM
  TGI: > 100 µM
M14 melanoma
  GI50: 70.7 µM
  TGI: > 100 µM
MCF7 breast
  GI50: 62.4 µM
  TGI: > 100 µM
SW-620 colon
  GI50: 42 µM
  TGI: > 100 µM
T-47D breast
  GI50: > 100 µM
  TGI: > 100 µM
HCC-2998 colon
  GI50: 70.9 µM
  TGI: > 100 µM
NCI/ADR-RES ovarian
  GI50: 43.2 µM
  TGI: > 100 µM
LOX IMVI melanoma
  GI50: 35.5 µM
  TGI: > 100 µM
CCRF-CEM leukemia
  GI50: 29.5 µM
  TGI: > 100 µM
HT29 colon
  GI50: 88.6 µM
  TGI: > 100 µM
SNB-19 CNS
  GI50: > 100 µM
  TGI: > 100 µM
A549 NSCLC
  GI50: 45.3 µM
  TGI: > 100 µM
ACHN renal
  GI50: 25.8 µM
  TGI: > 100 µM
OVCAR-8 ovarian
  GI50: 74 µM
  TGI: > 100 µM
CAKI-1 renal
  GI50: 20.4 µM
  TGI: > 100 µM
HCT-116 colon
  GI50: 63.5 µM
  TGI: > 100 µM
OVCAR-5 ovarian
  GI50: 58.5 µM
  TGI: > 100 µM
NCI-H522 lung
  GI50: > 100 µM
  TGI: > 100 µM
786-0 renal
  GI50: > 100 µM
  TGI: > 100 µM
SF-295 CNS
  GI50: 23.6 µM
  TGI: > 100 µM
EKVX NSCLC
  GI50: 17.6 µM
  TGI: 70 µM
MOLT-4 leukemia
  GI50: 91.4 µM
  TGI: > 100 µM
NCI-H23 lung
  GI50: 44.1 µM
  TGI: > 100 µM
OVCAR-4 ovarian
  GI50: > 100 µM
  TGI: > 100 µM
K-562 leukemia
  GI50: 18.3 µM
  TGI: 79 µM
TK-10 renal
  GI50: 28.9 µM
  TGI: 93.2 µM
UO-31 renal
  GI50: > 100 µM
  TGI: > 100 µM
RXF 393 renal
  GI50: 45.7 µM
  TGI: > 100 µM
SN12C renal
  GI50: 63.3 µM
  TGI: > 100 µM
SF-268 CNS
  GI50: 83.5 µM
  TGI: > 100 µM
UACC-257 melanoma
  GI50: 23.1 µM
  TGI: 60.4 µM
HOP-92 NSCLC
  GI50: 17.7 µM
  TGI: > 100 µM
BT-549 breast
  GI50: 26.2 µM
  TGI: > 100 µM
SK-MEL-28 melanoma
  GI50: > 100 µM
  TGI: > 100 µM
SF-539 CNS
  GI50: 17 µM
  TGI: 44.1 µM
HOP-62 NSCLC
  GI50: 84.9 µM
  TGI: > 100 µM
SNB-75 CNS
  GI50: > 100 µM
  TGI: > 100 µM
SK-OV-3 ovarian
  GI50: 89 µM
  TGI: > 100 µM
IGROV1 ovarian
  GI50: 88.6 µM
  TGI: > 100 µM
NCI-H460 lung
  GI50: 52.1 µM
  TGI: > 100 µM
RPMI-8226 leukemia
  GI50: 19.9 µM
  TGI: > 100 µM
COLO 205 colon
  GI50: 61 µM
  TGI: > 100 µM
DU-145 prostate
  GI50: 36.5 µM
  TGI: > 100 µM
UACC-62 melanoma
  GI50: 20.5 µM
  TGI: > 100 µM
SK-MEL-2 melanoma
  GI50: > 100 µM
  TGI: > 100 µM
U251 CNS
  GI50: 94.4 µM
  TGI: > 100 µM
MDA-MB-231 breast
  GI50: 28.5 µM
  TGI: > 100 µM
PC-3 prostate
  GI50: 43.8 µM
  TGI: > 100 µM
HS 578T breast
  GI50: 33.6 µM
  TGI: > 100 µM
HCT-15 colon
  GI50: 53.8 µM
  TGI: > 100 µM

From PubChem BioAssay (NCI)
